Reference: article PMC2916031 (Journal of molecular biology, 2010)

Legend:
[1] = biological target: C-terminally truncated MEAT1 (Trypanosoma brucei, UniProt C7AJA4); assay: U-addition to […]'-labelled RNA, denaturing gel; format: biochemical; details: 100 µM UTP, 300 nM enzyme, 1 µM RNA, Mg acetate, pH 8.0, 27 °C
[2] = biological target: full-length TbMEAT1 (Trypanosoma brucei, UniProt C7AJA4); assay: U-addition to […]'-labelled RNA, denaturing gel; format: biochemical; details: 100 µM UTP, 300 nM enzyme, 1 µM RNA, Mg acetate, pH 8.0, 27 °C
Chain of full-length TbMEAT1 (C7AJA4 whole entry): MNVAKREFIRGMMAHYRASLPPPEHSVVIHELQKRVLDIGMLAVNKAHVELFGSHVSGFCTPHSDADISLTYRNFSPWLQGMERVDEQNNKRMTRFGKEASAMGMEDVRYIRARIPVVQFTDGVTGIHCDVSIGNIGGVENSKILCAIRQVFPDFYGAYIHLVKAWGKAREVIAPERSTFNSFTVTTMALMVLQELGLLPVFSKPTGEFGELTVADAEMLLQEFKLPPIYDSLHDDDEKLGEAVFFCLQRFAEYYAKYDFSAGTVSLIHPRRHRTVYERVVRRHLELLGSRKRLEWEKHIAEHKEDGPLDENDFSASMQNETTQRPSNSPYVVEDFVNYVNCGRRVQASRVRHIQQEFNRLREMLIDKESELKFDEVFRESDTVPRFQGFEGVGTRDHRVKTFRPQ

Chain of C-terminally truncated MEAT1 (C7AJA4 1-381): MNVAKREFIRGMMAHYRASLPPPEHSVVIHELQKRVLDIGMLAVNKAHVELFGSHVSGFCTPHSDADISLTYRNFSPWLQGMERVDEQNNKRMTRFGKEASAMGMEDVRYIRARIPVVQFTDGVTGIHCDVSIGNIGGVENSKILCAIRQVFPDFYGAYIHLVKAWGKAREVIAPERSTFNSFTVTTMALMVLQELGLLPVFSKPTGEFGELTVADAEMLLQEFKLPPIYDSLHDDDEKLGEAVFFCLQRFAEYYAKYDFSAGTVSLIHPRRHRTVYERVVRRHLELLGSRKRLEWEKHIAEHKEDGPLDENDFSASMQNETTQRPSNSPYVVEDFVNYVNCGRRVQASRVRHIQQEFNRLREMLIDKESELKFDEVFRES

## O=c1ccn([C@@H]2O[C@H](COP(=O)(O)OP(=O)(O)OP(=O)(O)O)[C@@H](O)[C@H]2O)c(=O)[nH]1 [UTP]
[1]
  U-addition to 5'-labelled RNA, denaturing gel: neither limited proteolysis nor genetically-engineered C-terminal deletion had any discernable effects on enzymatic activity
[2]
  U-addition to 5'-labelled RNA, denaturing gel: U-addition patterns for full-length TbMEAT1
